Assay results as given in PubChem BioAssay (NCI).
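Interpolation was linear, between the two tested concentrations surrounding the appropriate level; five concentrations were tested over 48 hours in 96-well plates. TGI: concentration producing complete growth inhibition.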

Experiments:
Assay in all cases: growth of human tumour cells (NCI), 48 h
OVCAR-4 ovarian = tested on: OVCAR-4 ovarian
SF-295 CNS = tested on: SF-295 CNS
A498 renal = tested on: A498 renal
SK-OV-3 ovarian = tested on: SK-OV-3 ovarian
T-47D breast = tested on: T-47D breast
BT-549 breast = tested on: BT-549 breast
SF-268 CNS = tested on: SF-268 CNS
HCT-116 colon = tested on: HCT-116 colon

| SMILES | TGI (OVCAR-4 ovarian) [µM] | TGI (SF-295 CNS) [µM] | TGI (A498 renal) [µM] | TGI (SK-OV-3 ovarian) [µM] | TGI (T-47D breast) [µM] | TGI (BT-549 breast) [µM] | TGI (SF-268 CNS) [µM] | TGI (HCT-116 colon) [µM] |
| --- | --- | --- | --- | --- | --- | --- | --- | --- |
| CC1(C)CC2(C)CC1CC2(O)c1ccccc1 (stereo not drawn) | > 100 | > 100 | > 100 | > 100 | > 100 | > 100 | > 100 | > 100 |
| CC(C)=CCOc1cc(NC(=S)c2ccsc2C)ccc1Cl | > 100 | > 100 | > 100 | > 100 | > 100 | > 100 | > 100 | > 100 |
| C=C1[C@@](C)([C@@H]2CCCS2)[C@H]2C(C)=C[C@]1(C)n1c(=O)n(-c3ccccc3)c(=O)n12 | > 100 | > 100 | > 100 | > 100 | > 100 | > 100 | > 100 | > 100 |
| COC(=O)CCc1c(Cc2ccc[nH]2)[nH]c(C(=O)OCc2ccccc2)c1C | 34 | 53.3 | 62.8 | > 100 | – | – | 53.7 | 32.9 |
| COc1ccc(C(Cc2ccccc2)C2NC(=S)NC2=O)cc1 (stereo not drawn) | > 25 | > 25 | > 25 | > 25 | > 25 | – | > 25 | > 25 |
| O=[N+]([O-])c1ccc2oc(=Nc3ccccc3)c(Nc3ccccc3)nc2c1 | > 100 | > 100 | > 100 | > 100 | > 100 | – | > 100 | > 100 |
| [O-][n+]1c(CN2CCCCC2)nc2cccc3c2c1-c1ccccc1-3 | 77.4 | 84 | 38.3 | 92.5 | – | > 100 | – | 38.7 |
| CCOC(=O)c1c(C)nc2c(c1-c1cn(-c3ccccc3)nc1-c1ccccc1)C(=O)c1ccccc1-2 | > 100 | > 100 | > 100 | > 100 | > 100 | > 100 | > 100 | > 100 |
| Cc1ccc(-c2cc(O)c3nc4ccccc4n3c2)cc1 | > 100 | > 100 | > 100 | > 100 | > 100 | > 100 | > 100 | > 100 |
| Oc1ccccc1C1C=C(c2ccccc2)NC(N2CCCCC2)=C1c1nc2ccccc2[nH]1 (stereo not drawn) | 30.7 | 29.2 | – | 26.4 | 40.4 | 28.5 | 27.5 | 24.6 |
| Nc1cccc(S(=O)(=O)Nc2nnc(S(N)(=O)=O)s2)c1 | > 100 | > 100 | > 100 | > 100 | > 100 | > 100 | > 100 | > 100 |
| O=C1CC(C(CC(=O)c2ccccc2)c2ccccc2)C(=O)c2ccccc2N1 (stereo not drawn) | – | > 100 | > 100 | > 100 | 64.4 | > 100 | > 100 | > 100 |
| NC(=O)c1cc(N(CCO)CCO)c([N+](=O)[O-])cc1[N+](=O)[O-] | > 100 | > 100 | > 100 | > 100 | > 100 | – | > 100 | > 100 |
| O=C1CC(C(OCc2ccccc2)C(OCc2ccccc2)C(COCc2ccccc2)OCc2ccccc2)CC(=O)N1 (stereo not drawn) | > 100 | > 100 | > 100 | – | 65.6 | > 100 | > 100 | > 100 |
| COC(=O)C(=O)C(C(=O)C(=O)Nc1cccc([N+](=O)[O-])c1)c1nc2ccc(Cl)cc2[nH]c1=O (stereo not drawn) | > 100 | > 100 | – | > 100 | – | > 100 | > 100 | > 100 |
| Nc1ccc(Nc2cc(=O)[nH]c(=O)[nH]2)cc1 | > 100 | > 100 | > 100 | > 100 | > 100 | – | > 100 | > 100 |
| CC(=O)NC1=C(NCCCl)C(=O)c2ccccc2C1=O | > 100 | > 100 | – | > 100 | 84.1 | > 100 | > 100 | 48.1 |
| Cc1ccc(-c2nnc(CCCCCCCCc3nnc(-c4ccc(C)cc4O)n3N)n2N)c(O)c1 | > 100 | > 100 | > 100 | > 100 | > 100 | – | > 100 | > 100 |
| CC(=O)OC12c3ccccc3C(c3ccccc31)C1C(=O)N(c3ccccn3)C(=O)C12 (stereo not drawn) | > 100 | > 100 | – | > 100 | > 100 | > 100 | > 100 | > 100 |
| CC1(C)C(CCO)CC1n1ccc(=O)[nH]c1=O (stereo not drawn) | > 100 | > 100 | > 100 | > 100 | > 100 | – | > 100 | > 100 |
